≈ marks a conversion by molar mass, not a printed value. Read-outs that look alike come from different tables or passages of the source.
What was measured:
solubility = type: physicochemical
[1] = system: Staphylococcus aureus ATCC 6538; test: Minimal Inhibitory Concentrations against common test organisms; type: cell-based
[2] = system: Streptococcus pyogenes 930; test: as above; type: cell-based
Micrococcus luteus 9341 = test: as above; type: cell-based
Micrococcus luteus 4698 = test: as above; type: cell-based
[3] = system: Staphylococcus epidermidis 3519; test: as above; type: cell-based
[4] = system: Candida albicans ATCC 10231; test: as above; type: cell-based; conditions: ATCC10231
Esherichia coli Juhl = test: as above; type: cell-based
[5] = system: Propionibacterium acnes 132; test: as above; type: cell-based; conditions: Cutibacterium acnes
Gram-positive bacteria = test: antibiotic activity against Gram-positive bacteria in vitro; type: cell-based; conditions: including strains resistant to currently used therapeutic antibiotics
[6] = system: Streptococcus faecium ATCC 8043; test: Minimal Inhibitory Concentrations against common test organisms; type: cell-based; conditions: Enterococcus faecium, ATCC8043
[7] = system: Pseudomonas aeruginosa A-5007; test: as above; type: cell-based; conditions: A5007
Bacteroides fragilis 784 = test: as above; type: cell-based
[8] = ATCC6538, Staphylococcus aureus ATCC 6538, read-out: Minimal Inhibitory Concentrations

Structure (SMILES)	solubility in acetonitrile (solubility)	solubility in benzene (solubility)	solubility in chloroform (solubility)	solubility in methanol (solubility)	solubility in water (solubility)	MIC [1, 8] [µg/mL]	MIC [2] [µg/mL]	MIC (Micrococcus luteus 9341) [µg/mL]	MIC [3] [µg/mL]	MIC (Esherichia coli Juhl) [µg/mL]	solubility in ether (solubility)	solubility in hexane (solubility)	MIC [6] [µg/mL]	MIC [7] [µg/mL]	MIC [4] [µg/mL]	antibiotic activity against a number of Gram-positive bacteria (Gram-positive bacteria)	other results
CCc1c(Cl)c(O)c(Cl)c(O)c1C(=O)OC1C(C)OC(OCC2=CC=CCC(O)C(C)=CC(CC)C(OC3OC(C)(C)C(OC(=O)C(C)C)C(O)C3O)C(C)=CC(C)=CCC(C(C)O)OC2=O)C(OC)C1O (centres unmarked) [Tiacumicin B]	readily soluble	sparingly soluble	sparingly soluble	readily soluble	insoluble		12.5 (≈ 11.8 µM)	0.1 (≈ 0.0945 µM)	12.5 (≈ 11.8 µM)	> 100	sparingly soluble	insoluble	12.5 (≈ 11.8 µM)	> 100	> 100	possessed antibiotic activity	MIC ([1]; Staphylococcus aureus, ATCC6538, read-out: Minimal Inhibitory Concentrations): 12.5 µg/mL (≈ 11.8 µM); MIC [5]: 6.25 µg/mL (≈ 5.91 µM); MIC (Bacteroides fragilis 784): > 100 µg/mL
CCc1c(Cl)c(O)c(Cl)c(O)c1C(=O)OC1C(C)OC(OCC2=CC=CCC(O)C(C)=CC(CC)C(OC3OC(C)(C)C(O)C(O)C3OC(=O)C(C)C)C(C)=CC(C)=CCC(C(C)O)OC2=O)C(OC)C1O (centres unmarked) [Tiacumicin C]	readily soluble	sparingly soluble	sparingly soluble	readily soluble	insoluble	50 (≈ 47.3 µM)	25 (≈ 23.6 µM)	≤ 0.39	25 (≈ 23.6 µM)	> 100	sparingly soluble	insoluble	100 (≈ 94.5 µM)	> 100	> 100	possessed antibiotic activity	
CCc1c(Cl)c(O)c(Cl)c(O)c1C(=O)OC1C(O)C(C)OC(OCC2=CC=CCC(O)C(C)=CC(CC)C(OC3OC(C)(C)C(O)C(O)C3OC(=O)C(C)C)C(C)=CC(C)=CCC(C(C)O)OC2=O)C1OC (centres unmarked) [Tiacumicin D]	readily soluble	sparingly soluble	sparingly soluble	readily soluble	insoluble	> 25	> 25	0.2 (≈ 0.189 µM)	> 25	> 25	sparingly soluble	insoluble	> 25	> 25			

Second part, led by results:

solubility in acetonitrile (solubility)	solubility in benzene (solubility)	solubility in chloroform (solubility)	solubility in methanol (solubility)	solubility in water (solubility)	MIC [1, 8] [µg/mL]	MIC [2] [µg/mL]	MIC (Micrococcus luteus 9341) [µg/mL]	MIC [3] [µg/mL]	MIC (Esherichia coli Juhl) [µg/mL]	solubility in ether (solubility)	solubility in hexane (solubility)	MIC [6] [µg/mL]	MIC [7] [µg/mL]	Structure (SMILES)	MIC [4] [µg/mL]	antibiotic activity against a number of Gram-positive bacteria (Gram-positive bacteria)	other results
sparingly soluble	readily soluble	readily soluble	readily soluble	insoluble	100 (≈ 165 µM)	100 (≈ 165 µM)	0.1 (≈ 0.165 µM)	100 (≈ 165 µM)						CCC1CC=C(C)C=C(C)C(OC2OC(C)(C)C(OC(C)=O)C(O)C2O)C(CC)C=C(C)C(O)CC=CC=C(C)C(=O)O1 (centres unmarked) [Tiacumicin A]			solubility in acetone (solubility; acetone): sparingly soluble; MIC (Micrococcus luteus 4698): 0.39 µg/mL (≈ 0.645 µM)
readily soluble	sparingly soluble	sparingly soluble	readily soluble	insoluble	2.5 (≈ 2.39 µM)	50 (≈ 47.9 µM)		12.5 (≈ 12 µM)	> 100	sparingly soluble	insoluble	12.5 (≈ 12 µM)	> 100	CCC(=O)OC1C(OC2C(C)=CC(C)=CCC(C(C)O)OC(=O)C(COC3OC(C)C(OC(=O)c4c(O)c(Cl)c(O)c(Cl)c4CC)C(O)C3OC)=CC=CCC(O)C(C)=CC2CC)OC(C)(C)C(O)C1O (centres unmarked) [Tiacumicin E]			
readily soluble	sparingly soluble	sparingly soluble	readily soluble	insoluble	12.5 (≈ 11.8 µM)	12.5 (≈ 11.8 µM)	6.2 (≈ 5.86 µM)	12.5 (≈ 11.8 µM)	> 100	sparingly soluble	insoluble	6.2 (≈ 5.86 µM)	> 100	CCc1c(Cl)c(O)c(Cl)c(O)c1C(=O)OC1C(C)OC(OCC2=CC=CCC(O)C(C)=CC(CC)C(OC3OC(C)(C)C(O)C(OC(=O)C(C)C)C3O)C(C)=CC(C)=CCC(C(C)O)OC2=O)C(OC)C1O (centres unmarked) [Tiacumicin F]			

Reference: patent publication US4918174A, “Tiacumicin compounds” (Abbott Laboratories, priority 1986, dated 1990)
